US6906205B2, “Spiro and dispiro 1,2,4-trioxolane antimalarials” (Medicines for Malaria Venture MMV, priority 2002, dated 2005)
Values after ≈ are worked out from the molar mass of the structure shown.

Legend:
[1] = tested on: ANKA strain of P. berghei; assay: single dose STI in vivo screen in infected mice; set-up: species or system Plasmodium berghei; conditions: for Activity (%) po / Activity (%) sc / Activity (%) SSVpo: percent reduction in parasitemia day 3 post-infection, mice; for Activity (%) po / Survival (days) po: single 10 mg/kg po in 3% ethanol and 7% Tween 80; for Activity (%) sc / Survival (days) sc: single 10 mg/kg sc in 3% ethanol and 7% Tween 80; for Activity (%) SSVpo: single po dose in standard suspending vehicle (SSV); for Survival (days) po / Survival (days) sc / Survival (days) SSVpo: untreated control 5.6 ± 0.3; for Survival (days) SSVpo: single po dose in SSV
In short: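 Groups of 3-5 Moro SPF or NMRI mice infected with the ANKA strain of P. berghei received a single dose of trioxolane on day one post-infection. The compound was given in 3% ethanol and 7% Tween 80 or in SSV (0.5% w/v CMC, 0.5% v/v benzyl alcohol, 0.4% v/v Tween 80, 0.9% w/v sodium chloride in water). Antimalarial activity was scored as percent reduction in parasitemia on day three and as survival time versus untreated controls. Survival to day 30 counted as cure.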

[2] = tested on: P. falciparum K1 strain (Thailand resistant to chloroquine); assay: semiautomated microdilution assay, [3H]-hypoxanthine incorporation, K1 strain; assay type: cell-based, Plasmodium falciparum; conditions: K1 strain, 72 h incubation
In short: (§1)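 Logit regression analysis was used to estimate IC50 values. Parasites were intraerythrocytic forms from asynchronous stock cultures, and compounds were tested by semiautomated microdilution.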

[3] = tested on: P. falciparum NF54 strain (sensitive to standard antimalarials); assay: semiautomated microdilution assay, [3H]-hypoxanthine incorporation, NF54 strain; assay type: cell-based, Plasmodium falciparum; conditions: NF54 strain, 72 h incubation
In short: as §1

| Compound | Activity (%) po [1] [%] | Activity (%) sc [1] [%] | Activity (%) SSVpo [1] [%] | Survival (days) po [1] | Survival (days) sc [1] | Survival (days) SSVpo [1] | IC50 (ng/ml) K1 [2] | IC50 (ng/ml) NF54 [3] |
| --- | --- | --- | --- | --- | --- | --- | --- | --- |
| N#Cc1ccc(C2(c3ccccc3)OOC3(O2)C2CC4CC(C2)CC3C4)cc1 (centres unmarked) [OZ124] | 72 | 86 | 17 | 6.3 days | 7.0 days | 5.3 days | 2.1 ng/mL (≈ 5.62 nM) | 1.7 ng/mL (≈ 4.55 nM) |
| CCOC(=O)c1ccc(C2(c3ccc(C(=O)OCC)cc3)OOC3(O2)C2CC4CC(C2)CC3C4)cc1 (centres unmarked) [OZ125] | 8 | 0 | 0 | 5.3 days | 6.0 days | 5.7 days | 68 ng/mL (≈ 138 nM) | > 100 ng/mL |
| C=C1COC2(CCC3(CC2)OOC2(O3)C3CC4CC(C3)CC2C4)OC1 (centres unmarked) [OZ128] | 99.93 | 99.98 | 99.95 | 8.3 days | 11.7 days | 8.7 days | 0.59 ng/mL (≈ 1.69 nM) | 1.1 ng/mL (≈ 3.16 nM) |
| CC(C)(CO)NC(=O)[C@H]1CC[C@]2(CC1)OOC1(O2)C2CC3CC(C2)CC1C3 (some centres unmarked) [OZ129] | 0 | 0 | 4 | 5.3 days | 5.7 days | 5.7 days | 10/>10 ng/ml | 10/>10 ng/ml |
| O=S(=O)(Cc1ccccc1)N1CCC2(CC1)OOC1(O2)C2CC3CC(C2)CC1C3 (centres unmarked) [OZ131] | 21 | 90 | 41 | 5.7 days | 8.0 days | 6.0 days | 1.7 ng/mL (≈ 4.05 nM) | 4.1 ng/mL (≈ 9.77 nM) |
| O=C(O)c1ccccc1C(=O)N1CCC2(CC1)OOC1(O2)C2CC3CC(C2)CC1C3 (centres unmarked) [OZ132] | 38 | 40 | 0 | 6.3 days | 6.3 days | 5.7 days | 9.8 ng/mL (≈ 23.7 nM) | > 10 ng/mL |
| c1ccc2c(c1)OCCC21OOC2(O1)C1CC3CC(C1)CC2C3 (centres unmarked) [OZ134] | 72 | 99.95 | 27 | 6.3 days | 15.3 days | 6.0 days | 0.88 ng/mL (≈ 2.8 nM) | 1.1 ng/mL (≈ 3.5 nM) |
| O=C(O)c1ccc(C2(c3ccc(C(=O)O)cc3)OOC3(O2)C2CC4CC(C2)CC3C4)cc1 (centres unmarked) [OZ135] | 1 | 0 | 0 | 5.3/5.3/5.3 days | 5.3/5.3/5.3 days | 5.3/5.3/5.3 days | >100/>100 ng/ml | >100/>100 ng/ml |
| COC(=O)c1ccc(C2(c3ccccc3)OOC3(O2)C2CC4CC(C2)CC3C4)cc1 (centres unmarked) [OZ138] | 0 | 7 | 5 | 5.7 days | 6.3 days | 6.3 days | 10 ng/mL (≈ 24.6 nM) | 19 ng/mL (≈ 46.7 nM) |
| O=C(OC[C@H]1CC[C@]2(CC1)OOC1(O2)C2CC3CC(C2)CC1C3)n1ccnc1 (some centres unmarked) [OZ141] | 98 | 99.89 | 97 | 8.0 days | 8.7 days | 8.0 days | 1.7 ng/mL (≈ 4.38 nM) | 1.9 ng/mL (≈ 4.89 nM) |
| CC(C)(C)NC(=O)N1CCC2(CC1)OOC1(O2)C2CC3CC(C2)CC1C3 (centres unmarked) [OZ143] | 48 | 99.85 | 44 | 6.7 days | 9.7 days | 6.7 days | 0.98 ng/mL (≈ 2.69 nM) | 1.8 ng/mL (≈ 4.94 nM) |
| S=C(Nc1ccccc1)N1CCC2(CC1)OOC1(O2)C2CC3CC(C2)CC1C3 (centres unmarked) [OZ144] | 99.45 | 99.94 | 92 | 7.3 days | 16.7 days | 7.3 days | 1.4 ng/mL (≈ 3.5 nM) | 2.1 ng/mL (≈ 5.24 nM) |
| O=C(OC1CCC2(CC1)OOC1(O2)C2CC3CC(C2)CC1C3)n1ccnc1 (centres unmarked) [OZ147] | 85 | 99.89 | 71 | 8.0 days | 19.7 days | 8.0 days | 1.1 ng/mL (≈ 2.94 nM) | 1.8 ng/mL (≈ 4.81 nM) |
| O=C1OC2(CCC3(CC2)OOC2(O3)C3CC4CC(C3)CC2C4)c2ccccc21 (centres unmarked) [OZ149] | 64 | 87 | 3 | 7.7 days | 14.3 days | 6.0 days | 8.0 ng/mL (≈ 20.9 nM) | 8.8 ng/mL (≈ 23 nM) |
| O=C(NCCO)[C@H]1CC[C@]2(CC1)OOC1(O2)C2CC3CC(C2)CC1C3 (some centres unmarked) [OZ155] | 53 | 73 | 53 | 6.3 days | 8.3 days | 7.0 days | 12 ng/mL (≈ 34.1 nM) | > 10 ng/mL |
| C(CNC1CCC2(CC1)OOC1(O2)C2CC3CC(C2)CC1C3)CN1CCOCC1 (centres unmarked) [OZ161] | 59 | 99.96 | 46 | 7.0 days | 12.7 days | 6.7 days | 0.40 ng/mL (≈ 0.984 nM) | 0.50 ng/mL (≈ 1.23 nM) |
| O=C(O)c1ccc([C@H]2CC[C@]3(CC2)OOC2(O3)C3CC4CC(C3)CC2C4)cc1 (some centres unmarked) [OZ165] | 18 | 9 | 3 | 6.3 days | 5.7 days | 6.0 days | 39 ng/mL (≈ 101 nM) | > 10 ng/mL |
| CCOC(=O)c1ccc(OC[C@H]2CC[C@]3(CC2)OOC2(O3)C3CC4CC(C3)CC2C4)cc1 (some centres unmarked) [OZ166] | 11 | 4 | 0 | 6.7 days | 5.7 days | 6.3 days | 28 ng/mL (≈ 63.3 nM) | > 10 ng/mL |
| O=C1c2ccccc2C(=O)N1C[C@H]1CC[C@@]2(CC1)OOC1(O2)C2CC3CC(C2)CC1C3 (some centres unmarked) [OZ167] | 0 | 97 | 6 | 6.0 days | 7.3 days | 6.0 days | 6.7 ng/mL (≈ 15.8 nM) | > 10 ng/mL |
